From patent publication US5430028A, “5-aminoquinolone carboxylic acid derivative and antibacterial agent containing the same as active ingredient” (SS Pharmaceutical Co., Ltd., priority 1992, dated 1995)
Values after ≈ are worked out from the molar mass of the structure shown.

Columns and labels:
Test in all cases: Antibacterial test (MIC), The Japan Chemotherapeutic Association method
[1] = system: M. R. Staphylococcus aureus 420; assay type: cell-based, Methicillin-resistant Staphylococcus aureus; conditions: M. R. Staphylococcus aureus 420 (MRSA); Mueller Hinton Medium, 10^6 /ml, 37° C., determined after 24 hours
Method: (§1) Antibacterial activities against microorganisms shown in Tables 1-3 were measured according to the MIC measurement method of The Japan Chemotherapeutic Association. Sparfloxacin was used as a control agent.
(§2) Medium: Mueller Hinton Medium
(§3) A 1,000 micrograms/ml solution in 25% dimethylsulfoxide was prepared. A series of solutions with various concentrations (100 micrograms to 0.006 micrograms) were prepared by successively diluting the solution with sterilized water by a factor of 1/2.
(§4) Amount of inoculated bacteria: 10^6 /ml
(§5) Cultivation conditions: 37° C., 48 hours
(§6) Determination: After 24 hours.

[2] = system: M. R. Staphylococcus aureus 395; assay type: cell-based, Methicillin-resistant Staphylococcus aureus; conditions: M. R. Staphylococcus aureus 395 (MRSA); Mueller Hinton Medium, 10^6 /ml, 37° C., determined after 24 hours
Method: as §1, §2, §3, §4, §5, §6

[3] = system: M. R. Staphylococcus aureus 415; assay type: cell-based, Methicillin-resistant Staphylococcus aureus; conditions: M. R. Staphylococcus aureus 415 (MRSA); Mueller Hinton Medium, 10^6 /ml, 37° C., determined after 24 hours
Method: as §1, §2, §3, §4, §5, §6

[4] = system: M. R. Staphylococcus aureus 419; assay type: cell-based, Methicillin-resistant Staphylococcus aureus; conditions: M. R. Staphylococcus aureus 419 (MRSA); Mueller Hinton Medium, 10^6 /ml, 37° C., determined after 24 hours
Method: as §1, §2, §3, §4, §5, §6

[5] = system: M. R. Staphylococcus aureus 421; assay type: cell-based, Methicillin-resistant Staphylococcus aureus; conditions: M. R. Staphylococcus aureus 421 (MRSA); Mueller Hinton Medium, 10^6 /ml, 37° C., determined after 24 hours
Method: as §1, §2, §3, §4, §5, §6

[6] = system: Staphylococcus aureus Terashima; assay type: cell-based; conditions: Mueller Hinton Medium, 10^6 /ml, 37° C., determined after 24 hours
Method: as §1, §2, §3, §4, §5, §6

Proteus vulgaris OXK = assay type: cell-based; conditions: Mueller Hinton Medium, 10^6 /ml, 37° C., determined after 24 hours
Method: as §1, §2, §3, §4, §5, §6

Proteus rettgeri = assay type: cell-based; conditions: Providencia rettgeri, Mueller Hinton Medium, 10^6 /ml, 37° C., determined after 24 hours
Method: as §1, §2, §3, §4, §5, §6

[7] = system: Micrococcus lysodeikticus IFO 3333; assay type: cell-based; conditions: Micrococcus luteus, IFO3333, Mueller Hinton Medium, 10^6 /ml, 37° C., determined after 24 hours
Method: as §1, §2, §3, §4, §5, §6

[8] = system: Staphylococcus aureus Smith; assay type: cell-based; conditions: Mueller Hinton Medium, 10^6 /ml, 37° C., determined after 24 hours
Method: as §1, §2, §3, §4, §5, §6

[9] = system: Streptococcus faecalis IFO 12964; assay type: cell-based; conditions: Enterococcus faecalis, IFO12964, Mueller Hinton Medium, 10^6 /ml, 37° C., determined after 24 hours
Method: as §1, §2, §3, §4, §5, §6

Sarcina lutea ATCC 9341 = assay type: cell-based; conditions: Micrococcus luteus, ATCC9341, Mueller Hinton Medium, 10^6 /ml, 37° C., determined after 24 hours
Method: as §1, §2, §3, §4, §5, §6

[10] = system: Pseudomonas aeruginosa P2; assay type: cell-based; conditions: Mueller Hinton Medium, 10^6 /ml, 37° C., determined after 24 hours
Method: as §1, §2, §3, §4, §5, §6

[11] = system: Pseudomonas aeruginosa IFO 13736; assay type: cell-based; conditions: IFO13736, Mueller Hinton Medium, 10^6 /ml, 37° C., determined after 24 hours
Method: as §1, §2, §3, §4, §5, §6

Escherichia coli K-12 = assay type: cell-based; conditions: K12, Mueller Hinton Medium, 10^6 /ml, 37° C., determined after 24 hours
Method: as §1, §2, §3, §4, §5, §6

[12] = system: Klebsiella pneumoniae IFO 13541; assay type: cell-based; conditions: IFO13541, Mueller Hinton Medium, 10^6 /ml, 37° C., determined after 24 hours
Method: as §1, §2, §3, §4, §5, §6

Salmonella typhi TD = assay type: cell-based; conditions: Salmonella enterica, 24 h
Method: as §1, §2, §3, §4, §5, §6

[13] = system: Staphylococcus aureus FDA 209P; assay type: cell-based; conditions: FDA209P, Mueller Hinton Medium, 10^6 /ml, 37° C., determined after 24 hours
Method: as §1, §2, §3, §4, §5, §6

[14] = system: Klebsiella pneumoniae ATCC 10031; assay type: cell-based; conditions: ATCC10031, Mueller Hinton Medium, 10^6 /ml, 37° C., determined after 24 hours
Method: as §1, §2, §3, §4, §5, §6

Serratia marcescens NHL = assay type: cell-based; conditions: Mueller Hinton Medium, 10^6 /ml, 37° C., determined after 24 hours
Method: as §1, §2, §3, §4, §5, §6

[15] = system: Staphylococcus epidermidis ATCC 12228; assay type: cell-based; conditions: ATCC12228, Mueller Hinton Medium, 10^6 /ml, 37° C., determined after 24 hours
Method: as §1, §2, §3, §4, §5, §6

[16] = system: Bacillus subtilis ATCC 6633; assay type: cell-based; conditions: ATCC6633, Mueller Hinton Medium, 10^6 /ml, 37° C., determined after 24 hours
Method: as §1, §2, §3, §4, §5, §6

[17] = system: Pseudomonas aeruginosa IFO 12582; assay type: cell-based; conditions: IFO12582, Mueller Hinton Medium, 10^6 /ml, 37° C., determined after 24 hours
Method: as §1, §2, §3, §4, §5, §6

Shigella flexneri 2b = assay type: cell-based; conditions: Mueller Hinton Medium, 10^6 /ml, 37° C., determined after 24 hours
Method: as §1, §2, §3, §4, §5, §6

Escherichia coli O-1 = assay type: cell-based; conditions: O1, Mueller Hinton Medium, 10^6 /ml, 37° C., determined after 24 hours
Method: as §1, §2, §3, §4, §5, §6

SMILES	MIC [1]	MIC [2]	MIC [3]	MIC [4]	MIC [5]	MIC [6]	MIC (Proteus vulgaris OXK)	MIC (Proteus rettgeri)	MIC [7]	MIC [8]	MIC [9]	MIC (Sarcina lutea ATCC 9341)	MIC [10]	MIC [11]	MIC (Escherichia coli K-12)	MIC [12]	MIC (Salmonella typhi TD)	MIC [13]	MIC [14]	MIC (Serratia marcescens NHL)	also measured
Nc1c(F)c(N2CCNC(=O)CC2)c(F)c2c1c(=O)c(C(=O)O)cn2C1CC1 [Compound No. 1-2, 5-Amino-1-cyclopropyl-6,8-difluoro-7-(2,3,4,5,6,7-hexahydro-1H-1,4-diazepin-5-on-1-yl)-1,4-dihydro-4-oxo-quinoline-3-carboxylic acid]	0.05 µg/mL (≈ 0.127 µM)	0.05 µg/mL (≈ 0.127 µM)	0.024 µg/mL (≈ 0.0612 µM)	0.024 µg/mL (≈ 0.0612 µM)	0.012 µg/mL (≈ 0.0306 µM)	0.05 µg/mL (≈ 0.127 µM)	0.05 µg/mL (≈ 0.127 µM)	0.39 µg/mL (≈ 0.994 µM)	0.05 µg/mL (≈ 0.127 µM)	0.006 µg/mL (≈ 0.0153 µM)	0.2 µg/mL (≈ 0.51 µM)	0.39 µg/mL (≈ 0.994 µM)	6.25 µg/mL (≈ 15.9 µM)	3.13 µg/mL (≈ 7.98 µM)	0.05 µg/mL (≈ 0.127 µM)	0.05 µg/mL (≈ 0.127 µM)	0.05 µg/mL (≈ 0.127 µM)	0.012 µg/mL (≈ 0.0306 µM)	0.006 µg/mL (≈ 0.0153 µM)	0.78 µg/mL (≈ 1.99 µM)	MIC [15]: 0.05 µg/mL (≈ 0.127 µM); MIC [16]: 0.006 µg/mL (≈ 0.0153 µM); MIC [17]: 3.13 µg/mL (≈ 7.98 µM); MIC (Shigella flexneri 2b): 0.006 µg/mL (≈ 0.0153 µM); MIC (Escherichia coli O-1): 0.05 µg/mL (≈ 0.127 µM)
CN1CCN(c2c(F)c(N)c3c(=O)c(C(=O)O)cn(C4CC4)c3c2F)CCC1=O [1-8, 5-Amino-1-cyclopropyl-6,8-difluoro-7-(4-methyl-2,3,4,5,6,7-hexahydro-1H-1,4-diazepin-5-on-1-yl)-1,4-dihydro-4-oxoquinoline-3-carboxylic acid]	0.05 µg/mL (≈ 0.123 µM)	0.05 µg/mL (≈ 0.123 µM)	0.024 µg/mL (≈ 0.0591 µM)	0.024 µg/mL (≈ 0.0591 µM)	0.024 µg/mL (≈ 0.0591 µM)	0.05 µg/mL (≈ 0.123 µM)	0.1 µg/mL (≈ 0.246 µM)	0.39 µg/mL (≈ 0.96 µM)	0.1 µg/mL (≈ 0.246 µM)	0.012 µg/mL (≈ 0.0295 µM)	0.2 µg/mL (≈ 0.492 µM)	0.39 µg/mL (≈ 0.96 µM)	12.5 µg/mL (≈ 30.8 µM)	3.13 µg/mL (≈ 7.7 µM)	0.1 µg/mL (≈ 0.246 µM)	0.1 µg/mL (≈ 0.246 µM)	0.1 µg/mL (≈ 0.246 µM)	0.006 µg/mL (≈ 0.0148 µM)	0.006 µg/mL (≈ 0.0148 µM)	1.56 µg/mL (≈ 3.84 µM)	MIC [15]: 0.1 µg/mL (≈ 0.246 µM); MIC [16]: 0.006 µg/mL (≈ 0.0148 µM); MIC [17]: 6.25 µg/mL (≈ 15.4 µM); MIC (Shigella flexneri 2b): 0.006 µg/mL (≈ 0.0148 µM); MIC (Escherichia coli O-1): 0.1 µg/mL (≈ 0.246 µM)
Nc1c(F)c(N2CCNC(=O)CC2)c(Cl)c2c1c(=O)c(C(=O)O)cn2C1CC1 [1-10, 5-Amino-8-chloro-1-cyclopropyl-6-fluoro-7-(2,3,4,5,6,7-hexahydro-1H-1,4-diazepin-5-on-1-yl)-4-oxo-quinoline-3-carboxylic acid]	0.012 µg/mL (≈ 0.0294 µM)	0.024 µg/mL (≈ 0.0587 µM)	0.012 µg/mL (≈ 0.0294 µM)	0.024 µg/mL (≈ 0.0587 µM)	0.024 µg/mL (≈ 0.0587 µM)	0.1 µg/mL (≈ 0.245 µM)	0.2 µg/mL (≈ 0.489 µM)	0.78 µg/mL (≈ 1.91 µM)	0.05 µg/mL (≈ 0.122 µM)	0.006 µg/mL (≈ 0.0147 µM)	0.2 µg/mL (≈ 0.489 µM)	0.2 µg/mL (≈ 0.489 µM)	12.5 µg/mL (≈ 30.6 µM)	6.25 µg/mL (≈ 15.3 µM)	0.1 µg/mL (≈ 0.245 µM)	0.1 µg/mL (≈ 0.245 µM)	0.1 µg/mL (≈ 0.245 µM)	0.012 µg/mL (≈ 0.0294 µM)	0.05 µg/mL (≈ 0.122 µM)	1.56 µg/mL (≈ 3.82 µM)	MIC [15]: 0.024 µg/mL (≈ 0.0587 µM); MIC [16]: 0.012 µg/mL (≈ 0.0294 µM); MIC [17]: 3.13 µg/mL (≈ 7.66 µM); MIC (Shigella flexneri 2b): 0.006 µg/mL (≈ 0.0147 µM); MIC (Escherichia coli O-1): 0.1 µg/mL (≈ 0.245 µM)
C[C@@H]1CN(c2c(F)c(N)c3c(=O)c(C(=O)O)cn(C4CC4)c3c2F)C[C@H](C)N1 [Spafloxacin, reference compound]	0.1 µg/mL (≈ 0.255 µM)	0.1 µg/mL (≈ 0.255 µM)	0.05 µg/mL (≈ 0.127 µM)	0.05 µg/mL (≈ 0.127 µM)	0.05 µg/mL (≈ 0.127 µM)	0.1 µg/mL (≈ 0.255 µM)	0.05 µg/mL (≈ 0.127 µM)	0.1 µg/mL (≈ 0.255 µM)	0.39 µg/mL (≈ 0.994 µM)	0.05 µg/mL (≈ 0.127 µM)	0.39 µg/mL (≈ 0.994 µM)	1.56 µg/mL (≈ 3.98 µM)	1.56 µg/mL (≈ 3.98 µM)	0.78 µg/mL (≈ 1.99 µM)	0.012 µg/mL (≈ 0.0306 µM)	0.012 µg/mL (≈ 0.0306 µM)	0.006 µg/mL (≈ 0.0153 µM)	0.024 µg/mL (≈ 0.0612 µM)	0.006 µg/mL (≈ 0.0153 µM)	0.2 µg/mL (≈ 0.51 µM)	MIC [15]: 0.2 µg/mL (≈ 0.51 µM); MIC [16]: 0.024 µg/mL (≈ 0.0612 µM); MIC [17]: 1.56 µg/mL (≈ 3.98 µM); MIC (Shigella flexneri 2b): 0.006 µg/mL (≈ 0.0153 µM); MIC (Escherichia coli O-1): 0.012 µg/mL (≈ 0.0306 µM)
